Laboratory results published in patent US10761087B2, “Choroidal neovascularization suppressor or drusen formation suppressor, and method for assessing or screening for same” (Link Genomics, Inc., priority 2015, dated 2020).
pIC50: −log10 of the molar value. Read-outs that look alike come from different tables or passages of the source.

How the values were obtained:
[1] = tested on: RPE cells (ARPE-19); experiment: Focus (drusen-like structure) formation suppression in EMT induction model of RPE cells; format: cell-based, human; conditions: for Suppression of drusen-like structure formed in the RPE cell model: FIG. 35 to 39; for pIC50: Homo sapiens
Procedure: RPE cells (ARPE-19) were seeded on a plate, and incubated for 5 days at 37° C. […] As a control of EMT induction, a sample to which a compound to be assessed (test drug) is not added was used. After 48 hours from EMT induction, the cells were fixed by treating with a 4% paraformaldehyde solution for 30 minutes at room temperature, and then washed three times with PBS. The cells were treated with a 0.2% Triton-X/PBS solution for 5 minutes, and washed three times with PBS. […] The fluorescent-stained cells were imaged by using an Image Express Micro (available from Molecular Devices), and digitized by using a MetaXpress2.0 (available from Molecular Devices). By analyzing the degree of formation of Focus (Focus level) from the numerical data, a Focus formation suppressing rate was calculated according to the following Formula 1 on the basis of the numerical value at the time of no addition of a compound, and the EMT suppressive effect in each compound was verified. The degree of formation of Focus (Focus level) was determined according to the number and the volume of Focus as indexes.
IC50 in the table was calculated using the following Formula 2.
A: Higher concentration sandwiching 50%
B: Lower concentration sandwiching 50%
C: Inhibition rate at lower concentration sandwiching 50%
D: Inhibition rate at higher concentration sandwiching 50%
RPE cells (ARPE-19) were seeded on a plate, and incubated for 5 days at 37° C. […] As a control of EMT induction, a sample to which a compound to be assessed (test drug) is not added was used. The cells after observation were fixed by treating with a 4% paraformaldehyde solution for 30 minutes at room temperature, and then washed three times with PBS. The cells were treated with a 0.2% Triton-X/PBS solution for 5 minutes, and washed three times with PBS. […] The fluorescent-stained cells were imaged by using an Image Express Micro (available from Molecular Devices), and digitized by using a MetaXpress2.0 (available from Molecular Devices). By analyzing the degree of formation of Focus from the numerical data, a Focus formation suppressing rate was calculated on the basis of the case without addition of a compound and the case without EMT induction, and the EMT suppressive effect in each compound was verified. […] After washing three times with methanol, the cells were dried for 3 hours at room temperature. The dried cells were observed under a microscope.

[2] = tested on: mouse; experiment: In vivo model test for drusen suppression (TNF-a induced drusen-like structure in retinal region); conditions: oral, 14 days; oxaprozin 600 mg/kg/day, epalrestat 600 mg/kg/day, zaltoprofen 40 mg/kg/day
Procedure: In the vicinity of the retina in the posterior segment of eyeball of mouse, 400 ng of Recombinant Mouse TNF-a (R&D Systems, # 410-MT) was administered. After two weeks from administration, an eye ball was extracted, and a formalin-fixed, paraffin-embedded block was prepared. The tissue sample was deparaffinized by treating three times with xylene for 5 minutes each, twice with 100% ethanol for 1 minute each, with 90% ethanol for 1 minute, with 80% ethanol for 1 minute, with 70% ethanol for 1 minute, and with water for 5 minutes. Staining was conducted with a Mayer' s hematoxylin solution for 4 minutes, and with an eosin liquid for 1 minute. After treating for 5 minutes in flowing water, treatments were conducted with 70% ethanol for 1 minute, with 80% ethanol for 1 minute, with 90% ethanol for 1 minute, twice with 100% ethanol for 1 minute each, and three times with xylene for 5 minutes each, followed by mounting with Marinol. After drying for 15 minutes or more at room temperature, the untreated RPE cells, and the RPE cells in which inflammation is induced were observed. An eyeball tissue segment was prepared from a block. After incubation for 30 minutes in a gas-phase incubator at 56° C., the tissue sample was deparaffinized by treating three times with xylene for 5 minutes each, twice with 100% ethanol for 1 minute each, with 90% ethanol for 1 minute, with 80% ethanol for 1 minute, with 70% ethanol for 1 minute, and with water for 5 minutes. After removing a melanin pigment in tissues using Delicate Melanin Bleach Kit for Special Stains and IHC (Polysciences, # 24909-1) according to the manufacturer's protocol, a microwave treatment using a citrate buffer pH 6.0 was conducted for 10 minutes to activate the antigen. After standing still for 30 minutes at room temperature, treatments were conducted with PBS for 5 minutes, with a 3% hydrogen peroxide/PBS solution for 5 minutes, and with PBS for 5 minutes to inactivate an endogenous peroxidase. The sample was stood still in a 3% BSA/PBS solution for 30 minutes at room temperature to block the tissues. As primary antibodies, an anti-E-Cadherin antibody (BD Biosciences, # 610182) that was 500-fold diluted with a 1.5% BSA/PBS solution, and an anti-Cytokeratin antibody (Sigma, # C2931) that was 1000-fold diluted, and an anti-Fibronectin antibody (abcam, # 45688) that was 1000-fold diluted, and an anti-Vimentin antibody (Cell signaling Technology, # 5741) that was 100-fold diluted were added in an amount of 200 μL per one tissue, and caused to react with the tissues for 17 hours at 4° C. The tissues reacted with the primary antibodies were washed three times with PBS for 5 minutes each, then caused to react with a secondary antibody (a Mouse on Mouse (M. O. M.) Elite Peroxidase Kit (Vector Laboratories, # PK-2200) for the anti-E-Cadherin antibody and the anti-Cytokeratin antibody, and a VECTASTAIN Elite ABC Rabbit IgG Kit (Vector Laboratories, # PK-6101) for the anti-Fibronectin antibody and the anti-Vimentin antibody) for 30 minutes at room temperature, then washed three times with PBS for 5 minutes each, and then subjected to an ABC reaction for 30 minutes at room temperature according to the manufacturer's protocol. After washing the tissues three times with PBS for 5 minutes each, color development was caused for 3 minutes at room temperature using an ImmPACT AMEC Red Peroxidase (HRP) Substrate (Vector Laboratories, # SK-4285). The color-developed tissues were stained by using a New hematoxylin Type M (MUTO PURE CHEMICALS CO., LTD., # 30141), and then stood still in flowing water for 3 minutes, and treated with 70% ethanol for 1 minute, with 80% ethanol for 1 minute, with 90% ethanol for 1 minute, twice with 100% ethanol for 1 minute each, and three times with xylene for 5 minutes each, and mounted with the use of Marinol. After drying for 15 minutes or more at room temperature, observation was conducted. […]

[3] = Table 1, EMT-induced ARPE-19, compound added simultaneously, 48 hours, read-out: IC50 (Focus formation suppressing rate, EMT suppressive effect)
[4] = Test example 7, EMT-induced ARPE-19, 48 hours, read-out: IC50 values in the drusen-like structure suppressing tests

Row | SMILES | Suppression of drusen-like structure formed in the RPE cell model ([1]; EMT-induced ARPE-19, 48 hours) | pIC50 [1, 3] | pIC50 [1, 4] | Formation of a drusen-like structure (HE staining) [2] | Immunostaining of E-Cadherin in retinal epithelial cells [2] | Immunostaining of Fibronectin [2] | Shape of retinal pigment epithelial cells [2]
1 | CC(C(=O)O)c1ccc2c(c1)CC(=O)c1ccccc1S2 (centres unmarked) [Zaltoprofen, zaltoprofen] | suppresses a drusen-like structure formed in the RPE cell model in a concentration-dependent manner | 4.78 | 4.78 | apparently suppressed | strongly positive staining was observed between cells | the signal strength of staining was small | cells keeping a cubic shape were abundantly observed
2 | O=C(O)CCc1nc(-c2ccccc2)c(-c2ccccc2)o1 [Oxaprozin, oxaprozin] | suppresses a drusen-like structure formed in the RPE cell model in a concentration-dependent manner | 4.21 | 4.21 | apparently suppressed | strongly positive staining was observed between cells | the signal strength of staining was small | cells keeping a cubic shape were abundantly observed
